Results from patent US9023851B2 (Merck Patent GmbH, priority 2010, dated 2015).

Experiments:
[1] = target: T1, Src (Homo sapiens, UniProt P12931); test: cSrc enzymatic assay (Caliper LifeSciences technology); format: biochemical
T1 construct: purchased Carna Bioscience, Kobe, Japan
Experimental: Enzymatic Assays Using the Caliper LifeSciences Technology
The assays described here are performed on the Caliper Life Sciences LC3000 system This technology provides data on enzyme activity via measurement of the relative amounts of phosphorylated or unphosphorylated fluorescently labelled substrate peptide at the end of an enzymatic reaction. These different states of peptide are resolved by applying a potential difference across the sample. The presence of the charged phosphate group on the product (as opposed to the substrate) causes a different peptide mobility between the two peptides. This is visualized by excitation of the fluorescent label on the substrate and product peptides and represented as peaks within the analysis software.
In order to measure inhibitor activity of kinase inhibitors on this technology, a TTP Mosquito liquid handling instrument is used to place 0.25 ul of the appropriate concentration of inhibitor in 100% DMSO (for a dose response curve calculation) into each well of a 384-well plate. To this reaction components are added to a final volume of 25 ul. The table below indicates the sequences and concentrations for the assays described in this report. Standard components are 1 mM DTT (Sigma, D0632), 1 mM MgCl2 (Sigma, M1028), 100 mM HEPES pH 7.5 (Calbiochem, 391338), 0.015% Brij-35 (Sigma, B4184).
The reaction is incubated for 90 min at 25 C, and then stopped by the addition of 70 ul of Stop buffer (100 mM HEPES pH 7.5, 0.015% Brij-35, 10 mM EDTA (Sigma, E7889)).
The plate is read on a Caliper LC 3000 in an Off-Chip mobility shift assay format, on a 12-sipper chip. Unphosphorylated substrate and phosphorylated product peptide resolve as separate peaks allowing direct measurement of percentage of conversion of substrate to product. The percent conversion can be plotted against concentration of inhibitor to produce a sigmoidal dose response curve, from which an IC50 can be calculated using GeneData Condoseo or a similar product. Cellular activity assays

[2] = target: T2, Syk (Homo sapiens, UniProt P43405); test: Syk enzyme assay (flash plate / Caliper mobility shift); format: biochemical
T2 construct: purchased BPS Bioscience, CA, USA
Outline: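 Flashplate format used 2.5 nM SYK, 400 nM biotinylated peptide and 10 µM ATP with 33P tracer, pH 7.5, 1 h at 30 °C, read by radioactivity. Caliper format ran 90 min at 25 °C in HEPES pH 7.5, reading percent peptide conversion by mobility shift. IC50s came from dose-response curves.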

[3] = tested on: Ramos cells; test: BCR crosslinking-induced BLNK phosphorylation (BLNK cell assay); format: cell-based; conditions: Homo sapiens
Experimental: 1. BCR Crosslinking-Induced BLNK Phosphorylation
Ramos cells incubated overnight in IMDM medium containing 5% FCS were resuspended in IMDM medium without serum (3.3×10^6 cells/ml). 90 μl of cell suspension (300′000 cells) were incubated with 10 μl of SYK inhibitors (in 3% DMSO) for 20 minutes at 37° C., in 96 well plates. After preincubation with inhibitors, cells were activated with 10 μg/ml of goat antihuman anti-IgM for 10 minutes at 37° C. After stimulation, cells were fixed by addition of 80 μl of 4% paraformaldehyde followed by a 10 minutes incubation at RT and […] in 0.1% Triton X-100 in PBS. BLNK phosphorylation was detected by flow cytometry after staining of the cells with anti-BLNK-pY84-PE antibodies from BD pharmingen, for 45 minutes at RT. […]

[4] = target: T3, KDR (Homo sapiens, UniProt P35968); test: KDR enzymatic assay (Caliper LifeSciences technology); format: biochemical
T3 construct: purchased BPS Bioscience, CA, USA
Outline: (§1)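 Off-chip mobility-shift assay quantifying conversion of a fluorescent peptide substrate to phosphorylated product. Reactions in 100 mM HEPES pH 7.5, 1 mM DTT, 1 mM MgCl2, 0.015% Brij-35, 90 min at 25 C, stopped with EDTA. IC50 from sigmoidal fit of percent conversion versus inhibitor concentration.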

[5] = target: T4, ZAP-70 (Homo sapiens, UniProt P43403); test: Zap70 enzymatic assay (Caliper LifeSciences technology); format: biochemical
T4 construct: purchased BPS Bioscience, CA, USA
T4 sequence (P43403 1-619): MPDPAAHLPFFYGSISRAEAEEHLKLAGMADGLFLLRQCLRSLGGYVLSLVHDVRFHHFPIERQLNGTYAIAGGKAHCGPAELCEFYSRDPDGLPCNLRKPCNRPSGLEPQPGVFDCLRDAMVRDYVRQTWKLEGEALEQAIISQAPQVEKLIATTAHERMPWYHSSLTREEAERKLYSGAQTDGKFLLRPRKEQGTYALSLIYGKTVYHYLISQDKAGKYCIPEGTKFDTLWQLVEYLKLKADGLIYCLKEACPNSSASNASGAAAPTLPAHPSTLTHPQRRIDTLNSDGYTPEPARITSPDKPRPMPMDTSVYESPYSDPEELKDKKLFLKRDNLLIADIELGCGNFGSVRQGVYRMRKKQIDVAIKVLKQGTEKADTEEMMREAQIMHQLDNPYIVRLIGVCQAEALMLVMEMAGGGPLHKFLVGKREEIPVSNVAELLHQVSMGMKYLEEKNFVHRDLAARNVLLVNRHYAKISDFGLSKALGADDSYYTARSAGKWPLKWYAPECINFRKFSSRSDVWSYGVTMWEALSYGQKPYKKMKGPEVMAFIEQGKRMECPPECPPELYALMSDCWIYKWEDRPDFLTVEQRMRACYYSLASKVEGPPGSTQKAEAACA
Outline: as §1

T3 sequence (P35968 20-1356): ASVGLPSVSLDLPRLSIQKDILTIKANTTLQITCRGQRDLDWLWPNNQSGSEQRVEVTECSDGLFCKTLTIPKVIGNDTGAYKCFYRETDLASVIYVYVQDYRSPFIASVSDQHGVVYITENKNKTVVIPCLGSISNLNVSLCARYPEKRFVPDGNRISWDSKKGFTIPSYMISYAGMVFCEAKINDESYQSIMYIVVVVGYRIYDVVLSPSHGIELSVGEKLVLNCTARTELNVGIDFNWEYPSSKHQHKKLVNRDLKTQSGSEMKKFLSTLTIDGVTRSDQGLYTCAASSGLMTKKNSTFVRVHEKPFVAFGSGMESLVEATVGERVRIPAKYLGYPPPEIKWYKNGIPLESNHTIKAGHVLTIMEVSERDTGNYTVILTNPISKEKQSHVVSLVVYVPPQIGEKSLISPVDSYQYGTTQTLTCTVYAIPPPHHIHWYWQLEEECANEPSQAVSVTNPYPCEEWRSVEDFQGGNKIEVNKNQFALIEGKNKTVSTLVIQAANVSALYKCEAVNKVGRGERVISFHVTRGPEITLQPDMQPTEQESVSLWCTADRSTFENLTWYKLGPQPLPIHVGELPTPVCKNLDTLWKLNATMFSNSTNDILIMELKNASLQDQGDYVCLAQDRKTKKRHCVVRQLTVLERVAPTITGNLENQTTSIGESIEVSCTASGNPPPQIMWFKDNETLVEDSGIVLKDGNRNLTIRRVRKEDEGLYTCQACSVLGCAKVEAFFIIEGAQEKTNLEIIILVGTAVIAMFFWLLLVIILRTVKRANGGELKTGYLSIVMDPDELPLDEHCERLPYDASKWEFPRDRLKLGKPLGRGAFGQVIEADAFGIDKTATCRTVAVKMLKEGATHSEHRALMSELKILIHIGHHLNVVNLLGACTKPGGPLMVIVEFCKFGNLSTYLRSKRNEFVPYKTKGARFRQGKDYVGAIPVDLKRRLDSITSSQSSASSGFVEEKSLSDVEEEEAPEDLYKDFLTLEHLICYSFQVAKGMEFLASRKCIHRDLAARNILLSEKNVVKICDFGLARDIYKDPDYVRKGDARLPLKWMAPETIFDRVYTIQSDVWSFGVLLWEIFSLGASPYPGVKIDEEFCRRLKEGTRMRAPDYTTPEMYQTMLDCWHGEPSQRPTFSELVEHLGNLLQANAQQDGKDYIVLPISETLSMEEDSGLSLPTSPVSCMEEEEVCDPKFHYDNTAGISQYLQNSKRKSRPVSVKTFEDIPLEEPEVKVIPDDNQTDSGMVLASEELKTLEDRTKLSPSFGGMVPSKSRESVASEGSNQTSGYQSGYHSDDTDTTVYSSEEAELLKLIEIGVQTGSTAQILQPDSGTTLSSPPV
T1 sequence (P12931 whole entry): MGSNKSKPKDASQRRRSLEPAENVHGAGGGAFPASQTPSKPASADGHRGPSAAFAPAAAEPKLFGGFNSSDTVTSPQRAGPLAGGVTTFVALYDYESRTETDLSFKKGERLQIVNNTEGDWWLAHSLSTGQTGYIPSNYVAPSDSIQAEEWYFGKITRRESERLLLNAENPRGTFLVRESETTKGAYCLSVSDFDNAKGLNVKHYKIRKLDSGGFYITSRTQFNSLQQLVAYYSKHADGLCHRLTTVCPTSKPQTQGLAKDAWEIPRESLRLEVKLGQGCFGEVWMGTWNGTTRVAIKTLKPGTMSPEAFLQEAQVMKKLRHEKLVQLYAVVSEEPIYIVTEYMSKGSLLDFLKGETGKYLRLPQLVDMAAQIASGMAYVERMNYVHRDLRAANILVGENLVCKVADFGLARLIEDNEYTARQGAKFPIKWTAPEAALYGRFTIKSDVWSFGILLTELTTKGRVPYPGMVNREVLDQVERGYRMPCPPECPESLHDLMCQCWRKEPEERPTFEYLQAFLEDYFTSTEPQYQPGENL

Row | SMILES | IC50 [1] [µM] | IC50 [2] [µM] | IC50 [3] [µM] | IC50 [4] [µM] | IC50 [5] [µM]
1 | c1cnc2cc(-c3nccn4nc(Nc5ccc(N6CCOCC6)cc5)nc34)ccc2c1 [Example C265, (4-Morpholin-4-yl-phenyl)-(8-quinolin-7-yl-[1,2,4]triazolo[1,5-a]pyrazin-2-yl)-amine] | 0.3 to 3 | < 0.3 | 3 to 50 | < 0.3 | 0.3 to 3
2 | COc1cc(Nc2nc3c(-c4cccc(NS(C)(=O)=O)c4)nccn3n2)cc(OC)c1 [Example C272, N-{3-[2-(3,5-Dimethoxy-phenylamino)-[1,2,4]triazolo[1,5-a]pyrazin-8-yl]-phenyl}-methanesulfonamide] | 0.3 to 3 | < 0.3 | 3 to 50 | < 0.3 | 0.3 to 3
3 | Cc1cccc(Nc2nc3c(-c4ccc(N5CCOCC5)cc4)nccn3n2)c1 [Example C13, [8-(4-Morpholin-4-yl-phenyl)-[1,2,4]triazolo[1,5-a]pyrazin-2-yl]-m-tolyl-amine] | 3 to 50 | 0.3 to 3 | – | 0.3 to 3 | 3 to 50
4 | Cc1cc(C)cc(Nc2nc3c(NCCN)nccn3n2)c1 [Example C34, N^8-(2-Amino-ethyl)-N^2-(3,5-dimethyl-phenyl)-[1,2,4]triazolo[1,5-a]pyrazine-2,8-diamine] | 3 to 50 | 3 to 50 | – | 3 to 50 | 3 to 50
5 | NCc1cccc(-c2nccn3nc(Nc4ccc(N5CCOCC5)cc4)nc23)c1 [Example C253, [8-(3-Aminomethyl-phenyl)-[1,2,4]triazolo[1,5-a]pyrazin-2-yl]-(4-morpholin-4-yl-phenyl)-amine] | 0.3 to 3 | < 0.3 | 3 to 50 | < 0.3 | –
6 | COc1cc(Nc2nc3c(-c4ccc(C(C)(C)C#N)cc4)nccn3n2)cc(OC)c1 [Example C256, 2-{4-[2-(3,5-Dimethoxy-phenylamino)-[1,2,4]triazolo[1,5-a]pyrazin-8-yl]-phenyl}-2-methyl-propionitrile] | 0.3 to 3 | < 0.3 | – | 0.3 to 3 | 3 to 50
7 | COc1cc(Nc2nc3c(-c4ccccc4-c4ccccc4)nccn3n2)cc(OC)c1 [Example C284, (8-Biphenyl-2-yl-[1,2,4]triazolo[1,5-a]pyrazin-2-yl)-(3,5-dimethoxy-phenyl)-amine] | – | < 0.3 | 3 to 50 | – | –
8 | Cc1cc(C)cc(Nc2nc3c(NCCCN4CCN(C)CC4)nccn3n2)c1 [Example C36, N^2-(3,5-Dimethyl-phenyl)-N^8-[3-(4-methyl-piperazin-1-yl)-propyl]-[1,2,4]triazolo[1,5-a]pyrazine-2,8-diamine] | 3 to 50 | 3 to 50 | – | 3 to 50 | 3 to 50
9 | Cc1cccc(Nc2nc3c(NCCCN4CCOCC4)nccn3n2)c1 [Example C47, N^8-(3-Morpholin-4-yl-propyl)-N^2-m-tolyl-[1,2,4]triazolo[1,5-a]pyrazine-2,8-diamine] | 3 to 50 | 3 to 50 | – | 3 to 50 | 3 to 50
10 | COc1cc(Nc2nc3c(-c4cn[nH]c4)nccn3n2)cc(OC)c1 [Example C301, (3,5-Dimethoxy-phenyl)-[8-(1H-pyrazol-4-yl)-[1,2,4]triazolo[1,5-a]pyrazin-2-yl]-amine] | 0.3 to 3 | < 0.3 | – | 0.3 to 3 | 3 to 50
11 | FC(F)(F)c1cccc(Nc2nc3c(NCCCN4CCOCC4)nccn3n2)c1 [Example C42, N^8-(3-Morpholin-4-yl-propyl)-N^2-(3-trifluoromethyl-phenyl)-[1,2,4]triazolo[1,5-a]pyrazine-2,8-diamine] | 3 to 50 | 3 to 50 | – | 3 to 50 | 0.3 to 3
12 | Cc1cccc(Nc2nc3c(NCCCN4CCN(C)CC4)nccn3n2)c1 [Example C48, N^8-[3-(4-Methyl-piperazin-1-yl)-propyl]-N^2-m-tolyl-[1,2,4]triazolo[1,5-a]pyrazine-2,8-diamine] | 3 to 50 | 3 to 50 | – | 3 to 50 | 0.3 to 3
13 | COc1cc(Nc2nc3c(-c4cnn(C)c4)nccn3n2)cc(OC)c1 [Example C300, (3,5-Dimethoxy-phenyl)-[8-(1-methyl-1H-pyrazol-4-yl)-[1,2,4]triazolo[1,5-a]pyrazin-2-yl]-amine] | 0.3 to 3 | < 0.3 | – | 0.3 to 3 | 3 to 50
14 | Oc1cccc(-c2nccn3nc(Nc4ccc(N5CCOCC5)cc4)nc23)c1 [Example C269, 3-[2-(4-Morpholin-4-yl-phenylamino)-[1,2,4]triazolo[1,5-a]pyrazin-8-yl]-phenol] | 0.3 to 3 | < 0.3 | – | < 0.3 | 0.3 to 3
15 | Cc1cc(C)cc(Nc2nc3c(NCCCN(C)C)nccn3n2)c1 [Example C35, N^8-(3-Dimethylamino-propyl)-N^2-(3,5-dimethyl-phenyl)-[1,2,4]triazolo[1,5-a]pyrazine-2,8-diamine] | 3 to 50 | 3 to 50 | – | 3 to 50 | 3 to 50

The remaining lines, values ahead:

Row | IC50 [1] [µM] | IC50 [2] [µM] | IC50 [3] [µM] | IC50 [4] [µM] | IC50 [5] [µM] | SMILES
16 | 0.3 to 3 | < 0.3 | 3 to 50 | 0.3 to 3 | 3 to 50 | CN1CCN(c2ccc(Nc3nc4c(-c5ccc6c(cnn6C)c5)nccn4n3)cc2)CC1 [Example D15, [8-(1-Methyl-1H-indazol-5-yl)-[1,2,4]triazolo[1,5-a]pyrazin-2-yl]-[4-(4-methyl-piperazin-1-yl)-phenyl]-amine]
17 | 3 to 50 | 0.3 to 3 | – | 3 to 50 | 3 to 50 | COc1cc(Nc2nc3c(N4CCCC4c4ccccn4)nccn3n2)cc(OC)c1 (stereo not drawn) [Example D21, (3,5-Dimethoxy-phenyl)-[8-(2-pyridin-2-yl-pyrrolidin-1-yl)-[1,2,4]triazolo[1,5-a]pyrazin-2-yl]-amine]
18 | 0.3 to 3 | < 0.3 | – | < 0.3 | 3 to 50 | Cn1ncc2cc(-c3nccn4nc(Nc5ccc(N6CCOCC6)cc5)nc34)ccc21 [Example D2, [8-(1-Methyl-1H-indazol-5-yl)-[1,2,4]triazolo[1,5-a]pyrazin-2-yl]-(4-morpholin-4-yl-phenyl)-amine]
19 | 0.3 to 3 | < 0.3 | 3 to 50 | 0.3 to 3 | – | Cc1nc2cc(Nc3nc4c(-c5cnn(C)c5)nccn4n3)ccc2[nH]1 [Example D1, (2-Methyl-1H-benzoimidazol-5-yl)-[8-(1-methyl-1H-pyrazol-4-yl)-[1,2,4]triazolo[1,5-a]pyrazin-2-yl]-amine]
20 | 0.3 to 3 | < 0.3 | – | < 0.3 | 3 to 50 | CN(C)c1ccc(-c2nccn3nc(Nc4ccc(N5CCOCC5)cc4)nc23)cn1 [Example D3, [8-(6-Dimethylamino-pyridin-3-yl)-[1,2,4]triazolo[1,5-a]pyrazin-2-yl]-(4-morpholin-4-yl-phenyl)-amine]
